Results reported in paper PMC8042770, “Odorant Receptors for Detecting Flowering Plant Cues Are Functionally Conserved across Moths and Butterflies” (Molecular Biology and Evolution, 2020).
“Also recorded” adds a separate entry of the source. Read-outs that look alike come from different tables or passages of the source.

Columns and labels:
HarmOR42 = HarmOR42 (Helicoverpa armigera, UniProt A0A7T3KAF6); experiment: Xenopus oocyte two-electrode voltage clamp, HarmOR42 + Orco; assay type: cell-based; details: 67 odorants at 10^−4 M
HarmOR42, sequence (A0A7T3KAF6 entry or part of it): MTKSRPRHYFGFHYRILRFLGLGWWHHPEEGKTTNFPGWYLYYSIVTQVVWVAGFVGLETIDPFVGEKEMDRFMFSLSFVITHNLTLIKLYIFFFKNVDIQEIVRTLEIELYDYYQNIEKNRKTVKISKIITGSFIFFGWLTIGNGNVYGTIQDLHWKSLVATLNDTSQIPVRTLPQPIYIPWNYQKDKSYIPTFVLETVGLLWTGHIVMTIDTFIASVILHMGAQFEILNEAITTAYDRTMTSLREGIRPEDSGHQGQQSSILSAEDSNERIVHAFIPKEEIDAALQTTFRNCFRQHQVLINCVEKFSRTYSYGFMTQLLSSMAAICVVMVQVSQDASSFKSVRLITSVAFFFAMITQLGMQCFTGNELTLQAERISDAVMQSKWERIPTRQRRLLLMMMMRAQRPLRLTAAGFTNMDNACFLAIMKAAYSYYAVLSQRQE
From the text: In preliminary screening, we used a high dosage (10^−4 M) of odorants. […] Most functional ORs responded robustly to multiple odorants. The strongest response (up to ∼6,000 nanoampere, nA) we detected was that of HarmOR42 toward the aromatic compound PAA. Further, the response profiles of the 28 HarmORs appeared to be highly differentiated, with no apparent overlap in their tuning spectra (with the exception of HarmOR12 and 36) according to functional cluster analysis (fig. 1A).
(§1) In order to expand our analysis on the response properties of HarmORs, we conducted dose–response analyses for the 28 functional HarmORs. […] Six HarmORs (OR3, 22, 48, 50, 56, and 66) could not be activated by any ligand at 10^−5 M. For the other 22 HarmORs, dose–response curves were generated and EC50 values of their major ligands were calculated (fig. 2A and supplementary table S2, Supplementary Material online). The HarmOR repertoire was highly efficient in terpene detection, since the lowest EC50 values were obtained for such compounds. Many of these terpenes have been proposed to be defensive chemicals of plants. […] DMNT is also one of the oviposition deterring compounds found in larval frass of some Lepidoptera species such as S. littoralis ([Anderson et al. 1993]).
(§2) Functional characterization of individual ORs was performed by heterologous expression in Xenopus oocytes combined with a two-electrode voltage-clamp system ([Wang et al. 2010]). Briefly, the full-length gene of each OR and Orco were subcloned into the eukaryotic expression vector pT7TS. cRNAs were generated from linearized expression vectors using the mMESSAGE mMACHINE T7 kit (Ambion, Austin, TX). Then, the cRNA mixture of ORx and Orco (27.6 ng each) was injected (Nanoliter 2010, WPI Inc., Sarasota, FL) into oocytes (stage V–VII). The respective Orcos of different species were used for functional studies of OR42 orthologs except for the four butterfly species (V. tameamea, P. xuthus, D. plexippus, and P. rapae), in which we used the Orco from P. xuthus. After incubation in nutrient solution at 18 °C for 3–5 days, the response profile of each oocyte to multiple plant odorants was recorded via a two-electrode voltage clamp (OC-725C oocyte clamp, Warner Instruments, Hamden, CT) at a holding potential of −80 mV. Data were acquired by using a Digidata 1440 A and were analyzed by pCLAMP 10.2 software (Axon Instruments Inc., Union City, CA).
(§3) Stock solutions of each odorant were prepared at 1 M using DMSO as a solvent, and each odorant was diluted in 1× Ringer’s solution to the indicated concentrations for electrophysiological recording. For functional screening of each HarmOR, a panel of 67 odorants belonging to three types of chemical classes: terpenes, aromatics, and aliphatics (short-chain fatty acid) were used (supplementary table S1, Supplementary Material online). For functional studies of OR42 orthologs from different species, six odorants including PAA, benzaldehyde, (E)-2-hexen-1-al, cinnamaldehyde, 2-phenylethanol, and heptanal were used.

[1] = system: H. armigera moth antennae; experiment: Electroantennography (EAG), wild-type vs HarmOR42 knock-out moths; assay type: in vivo, Helicoverpa armigera; details: single odorants, 1 μg
From the text: We next conducted a loss-of-function study by generating a HarmOR42-lacking H. armigera strain by CRISPR/Cas9 targeting the first coding exon. Homozygous mutants were obtained with a large segment deletion of 203 bp and a 6-bp nonhomologous insertion in the genome (fig. 6B), introducing a premature stop codon in the coding sequence. […] The most likely hypothesis is that HarmOR42 is not the major receptor for sensing this compound in H. armigera. As a control, we tested the response of male moths to the sex pheromone component Z11-16: Ald that is not a ligand of HarmOR42. As expected, we observed no difference between the EAG responses of mutant and wild-type moths to this compound.
The antennae of 2- to 3-day-old virgin male and female moths were cut at the base of the flagellum. After removing the tip, one antenna was inserted between two glass electrodes filled with 0.1 M KCl solution. In each test, a 10-μl solution of each odorant was added onto a piece of filter paper (0.5 cm × 0.5 cm) and then inserted into a Pasteur pipette. About 100 ng/μl stock solutions of individual odorants and different doses of the mixture IAC were prepared with paraffin oil. A continuous airflow of 30 ml/s was produced by a stimulus controller (CS-55, Syntech, Kirchzarten, Germany). Odor stimulation was controlled by a puff of purified air (0.2 s at 10 ml/s airflow) from the CS-55. EAG signals were amplified with a 10× AC/DC headstage preamplifier (Syntech) and further acquired with an Intelligent Data Acquisition Controller (IDAC-4-USB, Syntech) ([Cao et al. 2016]). The signals were recorded, monitored, and analyzed using Syntech EAG-software (Syntech, Germany). The EAG response values for each compound were calculated by subtracting the value of the same antennae corresponding to a solvent blank of paraffin oil.

HarmOR67 = HarmOR67 (Helicoverpa armigera, UniProt A0A7T3KAH1); experiment: Xenopus oocyte two-electrode voltage clamp, HarmOR67 + Orco; assay type: cell-based; details: dose response in oocytes, unit M
HarmOR67, sequence (A0A7T3KAH1 entry or part of it): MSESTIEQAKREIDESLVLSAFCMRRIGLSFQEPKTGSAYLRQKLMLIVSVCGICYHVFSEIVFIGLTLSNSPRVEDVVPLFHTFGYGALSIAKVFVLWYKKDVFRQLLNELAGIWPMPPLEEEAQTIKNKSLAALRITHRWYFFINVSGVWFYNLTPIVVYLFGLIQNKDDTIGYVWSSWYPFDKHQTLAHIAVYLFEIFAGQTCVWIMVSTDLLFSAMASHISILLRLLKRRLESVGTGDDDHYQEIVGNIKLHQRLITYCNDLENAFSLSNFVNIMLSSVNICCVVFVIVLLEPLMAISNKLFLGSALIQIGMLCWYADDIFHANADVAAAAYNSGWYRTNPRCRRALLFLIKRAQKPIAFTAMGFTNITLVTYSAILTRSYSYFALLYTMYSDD
Description: as §1
as §2, with “CA). […]” for “CA).”

HarmOR43 = biological target: T1, HarmOR43 (Helicoverpa armigera, UniProt A0A7T3KAF8); experiment: Xenopus oocyte two-electrode voltage clamp, HarmOR43 + Orco; assay type: cell-based; details: dose response in oocytes, unit M
T1 sequence (A0A7T3KAF8 1-415): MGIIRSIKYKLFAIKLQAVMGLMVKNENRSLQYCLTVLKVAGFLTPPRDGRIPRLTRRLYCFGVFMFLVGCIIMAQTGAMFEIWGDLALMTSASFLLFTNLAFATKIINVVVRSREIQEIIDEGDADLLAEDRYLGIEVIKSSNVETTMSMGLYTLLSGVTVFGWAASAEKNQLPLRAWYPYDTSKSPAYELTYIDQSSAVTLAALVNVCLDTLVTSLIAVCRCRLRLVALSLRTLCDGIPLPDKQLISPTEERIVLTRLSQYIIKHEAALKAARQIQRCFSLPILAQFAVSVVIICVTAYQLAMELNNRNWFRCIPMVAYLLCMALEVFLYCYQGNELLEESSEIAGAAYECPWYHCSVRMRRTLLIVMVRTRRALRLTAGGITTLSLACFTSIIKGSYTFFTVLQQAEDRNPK
Description: as §1
as §2, with “CA). […]” for “CA).”

HarmOR27 = biological target: T2, HarmOR27 (Helicoverpa armigera, UniProt A0A7T3KAG1); experiment: Xenopus oocyte two-electrode voltage clamp, HarmOR27 + Orco; assay type: cell-based
T2 sequence (A0A7T3KAG1 1-426): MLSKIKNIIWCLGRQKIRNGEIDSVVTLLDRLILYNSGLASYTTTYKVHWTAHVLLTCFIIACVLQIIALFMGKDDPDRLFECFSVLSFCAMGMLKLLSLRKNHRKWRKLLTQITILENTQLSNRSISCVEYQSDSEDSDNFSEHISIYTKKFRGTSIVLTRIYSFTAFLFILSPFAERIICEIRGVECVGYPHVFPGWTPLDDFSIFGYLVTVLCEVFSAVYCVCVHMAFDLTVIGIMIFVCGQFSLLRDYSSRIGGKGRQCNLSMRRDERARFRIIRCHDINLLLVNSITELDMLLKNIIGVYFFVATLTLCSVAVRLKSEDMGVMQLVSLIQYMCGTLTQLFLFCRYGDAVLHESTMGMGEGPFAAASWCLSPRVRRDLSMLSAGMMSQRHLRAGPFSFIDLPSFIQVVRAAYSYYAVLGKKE
Description: as §1, §2, §3

HarmOR19 = biological target: T3, HarmOR19 (Helicoverpa armigera, UniProt A0A7T3N0J7); experiment: Xenopus oocyte two-electrode voltage clamp, HarmOR19 + Orco; assay type: cell-based; details: dose response in oocytes, unit M
T3 sequence (A0A7T3N0J7 1-402): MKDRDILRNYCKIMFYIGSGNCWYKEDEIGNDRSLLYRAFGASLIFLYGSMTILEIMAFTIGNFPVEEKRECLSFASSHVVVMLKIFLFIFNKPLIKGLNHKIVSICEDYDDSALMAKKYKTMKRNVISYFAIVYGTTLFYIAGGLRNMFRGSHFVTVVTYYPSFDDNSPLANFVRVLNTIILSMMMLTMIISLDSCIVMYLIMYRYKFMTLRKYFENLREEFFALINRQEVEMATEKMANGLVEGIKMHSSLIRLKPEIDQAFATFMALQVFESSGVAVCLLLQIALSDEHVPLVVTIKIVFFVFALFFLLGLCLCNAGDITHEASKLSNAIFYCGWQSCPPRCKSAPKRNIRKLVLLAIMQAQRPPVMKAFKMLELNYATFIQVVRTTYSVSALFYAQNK
Description: as §1
as §2, with “CA). […]” for “CA).”

HarmOR31 = HarmOR31 (Helicoverpa armigera, UniProt A0A7T3N2E9); experiment: Xenopus oocyte two-electrode voltage clamp, HarmOR31 + Orco; assay type: cell-based
HarmOR31, sequence (A0A7T3N2E9 entry or part of it): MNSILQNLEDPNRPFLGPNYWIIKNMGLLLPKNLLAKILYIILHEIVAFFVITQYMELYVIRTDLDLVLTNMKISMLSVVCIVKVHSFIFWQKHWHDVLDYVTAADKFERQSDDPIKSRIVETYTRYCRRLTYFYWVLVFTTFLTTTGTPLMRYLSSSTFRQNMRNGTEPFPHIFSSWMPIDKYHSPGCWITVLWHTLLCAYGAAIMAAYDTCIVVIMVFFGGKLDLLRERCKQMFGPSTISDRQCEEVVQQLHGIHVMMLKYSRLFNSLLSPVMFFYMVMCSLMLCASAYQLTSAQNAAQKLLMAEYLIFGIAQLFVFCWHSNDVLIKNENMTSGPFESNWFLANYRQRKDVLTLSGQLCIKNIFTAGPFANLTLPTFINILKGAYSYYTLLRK
From the text: In order to expand our analysis on the response properties of HarmORs, we conducted dose–response analyses for the 28 functional HarmORs. […] Many of these terpenes have been proposed to be defensive chemicals of plants.
Briefly, the full-length gene of each OR and Orco were subcloned into the eukaryotic expression vector pT7TS. cRNAs were generated from linearized expression vectors using the mMESSAGE mMACHINE T7 kit (Ambion, Austin, TX). […] The respective Orcos of different species were used for functional studies of OR42 orthologs except for the four butterfly species (V. tameamea, P. xuthus, D. plexippus, and P. rapae), in which we used the Orco from P. xuthus.
as §3

HarmOR29 = HarmOR29 (Helicoverpa armigera, UniProt A0A7T3KAG0); experiment: Xenopus oocyte two-electrode voltage clamp, HarmOR29 + Orco; assay type: cell-based; details: dose response in oocytes, unit M
HarmOR29, sequence (A0A7T3KAG0 1-395): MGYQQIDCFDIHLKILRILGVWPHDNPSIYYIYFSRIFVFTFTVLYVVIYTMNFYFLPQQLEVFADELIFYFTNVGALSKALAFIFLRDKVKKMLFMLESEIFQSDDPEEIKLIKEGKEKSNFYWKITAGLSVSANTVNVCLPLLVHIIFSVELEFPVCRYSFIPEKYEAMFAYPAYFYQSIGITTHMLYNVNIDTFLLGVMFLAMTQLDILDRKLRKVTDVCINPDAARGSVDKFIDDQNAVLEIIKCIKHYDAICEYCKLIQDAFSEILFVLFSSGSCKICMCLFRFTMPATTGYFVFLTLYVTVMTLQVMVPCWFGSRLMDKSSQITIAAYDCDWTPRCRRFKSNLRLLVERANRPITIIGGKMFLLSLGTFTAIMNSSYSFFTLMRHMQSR
Description: as §1
(§4) Functional characterization of individual ORs was performed by heterologous expression in Xenopus oocytes combined with a two-electrode voltage-clamp system ([Wang et al. 2010]). […] After incubation in nutrient solution at 18 °C for 3–5 days, the response profile of each oocyte to multiple plant odorants was recorded via a two-electrode voltage clamp (OC-725C oocyte clamp, Warner Instruments, Hamden, CT) at a holding potential of −80 mV. Data were acquired by using a Digidata 1440 A and were analyzed by pCLAMP 10.2 software (Axon Instruments Inc., Union City, CA). […]

HarmOR59 = HarmOR59 (Helicoverpa armigera, UniProt A0A7T3KAU6); experiment: Xenopus oocyte two-electrode voltage clamp, HarmOR59 + Orco; assay type: cell-based
HarmOR59, sequence (A0A7T3KAU6 entry or part of it): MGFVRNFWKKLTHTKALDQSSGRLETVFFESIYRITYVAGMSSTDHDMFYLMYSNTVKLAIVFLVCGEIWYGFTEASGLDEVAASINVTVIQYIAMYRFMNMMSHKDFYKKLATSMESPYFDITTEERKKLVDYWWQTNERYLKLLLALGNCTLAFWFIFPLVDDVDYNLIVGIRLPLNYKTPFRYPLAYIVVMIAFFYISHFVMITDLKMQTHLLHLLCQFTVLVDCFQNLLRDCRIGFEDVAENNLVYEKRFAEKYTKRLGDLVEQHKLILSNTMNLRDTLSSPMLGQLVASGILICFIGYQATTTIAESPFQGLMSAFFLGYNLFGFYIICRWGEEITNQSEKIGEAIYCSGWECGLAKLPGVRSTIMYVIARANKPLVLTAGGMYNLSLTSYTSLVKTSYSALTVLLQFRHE
Description: as §1, §2, §3

HarmOR10 = HarmOR10 (Helicoverpa armigera, UniProt A0A0G2RLT6); experiment: Xenopus oocyte two-electrode voltage clamp, HarmOR10 + Orco; assay type: cell-based
HarmOR10, sequence (A0A0G2RLT6 1-390): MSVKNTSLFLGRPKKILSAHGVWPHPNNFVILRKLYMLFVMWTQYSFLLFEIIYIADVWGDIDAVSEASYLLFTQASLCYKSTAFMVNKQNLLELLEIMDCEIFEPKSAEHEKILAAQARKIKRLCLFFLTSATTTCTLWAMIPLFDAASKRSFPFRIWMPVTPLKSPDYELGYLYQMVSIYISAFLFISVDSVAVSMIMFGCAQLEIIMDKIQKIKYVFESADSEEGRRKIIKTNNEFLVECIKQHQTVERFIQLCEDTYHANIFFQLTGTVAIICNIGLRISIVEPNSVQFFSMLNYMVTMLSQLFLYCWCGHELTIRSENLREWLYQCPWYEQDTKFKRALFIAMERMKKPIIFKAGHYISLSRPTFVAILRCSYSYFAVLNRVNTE
Description: as §1, §4

EsemOR19 = experiment: Xenopus oocyte voltage clamp of EsemOR19; assay type: cell-based, Eriocrania semipurpurella; details: 10^−4 M
From the text: We also examined the response profile of EsemOR19 from E. semipurpurella, an OR that falls close to the HarmOR42-defined clade but that is not considered as a HarmOR42 ortholog. […] We also characterized the function of RnubOR13 from R. nubila (Trichoptera), a species from a sister order of Lepidoptera. […] Unfortunately, the putative E. semipurpurella OR that would consist of EsemOR34 + 35 and that falls at the base of the HarmOR42 clade could not be tested as it is incomplete.
Full-length coding sequences of 45 ORs (including Orco) of H. armigera, and OR42 and Orco orthologs in B. mori, H. assulta, G. molesta, and M. separate were amplified from the antennal cDNA of each species adults by PCR with specific primer pairs of each gene. […]
as §4

[2] = system: HarmOR42 orthologs from 11 lepidopteran species; experiment: Xenopus oocyte voltage clamp of HarmOR42 orthologs, six-odorant screen; assay type: cell-based; details: six compounds at 10^−4 M; 11 species
From the text: We gathered additional experimental evidence to support this conservation of a PAA-sensing function by performing in vitro functional characterization of HarmOR42 orthologs from 11 lepidopteran species belonging to eight families (fig. 5B). […] It should be noted that the species studied here included three Noctuidae species (H. armigera, H. assulta, and Mythimna separata), four moths from Bombycidae (Bombyx mori), Crambidae (Chilo suppressalis), Sphingidae (Manduca sexta), and Tortricidae (Grapholitha molesta) ([Mitter et al. 2017]; [Kawahara et al. 2019]), and four diurnal butterfly species from diverse families (Vanessa tameamea, Papilio xuthus, Danaus plexippus, and Pieris rapae) (fig. 5B). […]
as §4

HarmOR35 = HarmOR35 (Helicoverpa armigera, UniProt A0A7T3N1A8); experiment: Xenopus oocyte two-electrode voltage clamp, HarmOR35 + Orco; assay type: cell-based; details: HarmOR35; dose response in oocytes; unit M; read-out: EC50
HarmOR35, sequence (A0A7T3N1A8 entry or part of it): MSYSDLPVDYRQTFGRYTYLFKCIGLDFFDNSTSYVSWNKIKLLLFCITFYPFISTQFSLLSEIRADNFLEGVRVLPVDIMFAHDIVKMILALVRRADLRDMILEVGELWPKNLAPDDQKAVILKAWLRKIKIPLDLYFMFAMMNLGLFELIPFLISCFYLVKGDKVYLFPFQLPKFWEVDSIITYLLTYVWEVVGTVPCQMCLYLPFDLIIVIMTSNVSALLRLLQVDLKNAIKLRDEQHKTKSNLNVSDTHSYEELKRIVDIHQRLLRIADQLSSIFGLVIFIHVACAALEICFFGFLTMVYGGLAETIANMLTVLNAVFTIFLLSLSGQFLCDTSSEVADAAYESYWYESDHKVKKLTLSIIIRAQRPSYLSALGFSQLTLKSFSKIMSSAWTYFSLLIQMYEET
Description: as §1, §4

`CCCCCCC=O` [Heptanal] was tested, and the “ligand tuning of HarmOR42” value (HarmOR42) was “minor ligands”, the “EAG response of HarmOR42 knock-out mutants compared with wild-type moths” value [1] was “significantly decreased” and the EC50 (HarmOR67) was 302 µM.
`COC(=O)c1ccccc1` [Methyl benzoate] was tested, and the EC50 (HarmOR43) was 15.5 µM and the EC50 (HarmOR27) was 13.1 µM.
For `CCOC(=O)c1ccccc1` [Ethyl benzoate], the EC50 (HarmOR19) was 60.2 µM, the EC50 (HarmOR27) was 68.7 µM and the EC50 (HarmOR31) was 13.2 µM.
In the case of `CCCCCCCO` [1-Heptanol], the EC50 (HarmOR67) is reported as 218 µM.
With `COC(=O)c1ccc(O)cc1` [Methyl 4-hydroxybenzoate] the EC50 (HarmOR43) was 19.6 µM and the EC50 (HarmOR29) was 178 µM.
`CCc1ccc(C(C)=O)cc1` [4'-Ethylacetophenone] gave an EC50 (HarmOR19) of 16.7 µM.
In the case of `O=Cc1ccccc1` [Benzaldehyde], the EC50 (HarmOR59) is reported as 12 µM, the EC50 (HarmOR10) is reported as 124 µM and the “ligand tuning of HarmOR10” value (HarmOR10; 67 odorants at 10^−4 M) is reported as “specific ligand”.
`CCCCCCCCO` [1-Octanol] gave an EC50 (HarmOR31; HarmOR31, dose response in oocytes, unit M, read-out: EC50) of 96.1 µM and an EC50 (HarmOR67) of 33.1 µM.
For `CCCCOC(=O)c1ccccc1O` [Butyl salicylate], the EC50 (HarmOR19) was 402 µM, the “response of HarmOR27” value (HarmOR27; odorant 10^−4 M) was “maximal response” and the “response of HarmOR27” value (HarmOR27; odorant 10^−5 M) was “failed to evoke any current”.
For `O=C/C=C/c1ccccc1` [Cinnamaldehyde], the “ligand tuning of HarmOR42” value (HarmOR42) was “minor ligands”, the EC50 (HarmOR59) was 1.72 µM and the “EAG response of HarmOR42 knock-out mutants compared with wild-type moths” value [1] was “significantly decreased”. For the same compound, the “response of EsemOR19” value (EsemOR19) was “very weak current; also recorded: responded” and the “ligand tuning of HarmOR42 orthologs” value [2] was “minor ligands”.
In the case of `COC(=O)c1ccccc1O` [Methyl salicylate], the EC50 (HarmOR43) is reported as 15.8 µM and the EC50 (HarmOR27) is reported as 15.6 µM.
`CC1(C)[C@H]2CC=C(C=O)[C@@H]1C2` [(1R)-(-)-Myrtenal] gave an EC50 (HarmOR35) of 255 µM.
